Experimental data from US9089499B2, “Para-coumaric acid or para-hydroxycinnamic acid derivatives and their use in cosmetic or dermatological compositions” (BASF Beauty Care Solutions France S.A.S., priority 2005, dated 2015).
Read-outs that look alike come from different tables or passages of the source. Values belong to the compound of their own block, whether it stands above or below them.

Experiments:
Human tyrosinase [1] = target: T1, Human tyrosinase (Homo sapiens, UniProt P14679); assay: In vitro test of inhibition of human tyrosinase from melanocyte extracts (L-dopa/MBTH, OD 490 nm); format: biochemical; settings: melanocyte extract; for inhibition at 100 µM: 10^−4M, read-out: Inhibition of human tyrosinase, percentage of inhibition, Mean 10^−4M; for inhibition at 10 µM: 10^−5M, read-out: Inhibition of human tyrosinase, percentage of inhibition, Mean 10^−5M
T1 construct: endogenous in cells; host or cells: normal human melanocytes (abdominal surgery; several donors of fair, brown and black phototypes)
T1 sequence (P14679 19-529): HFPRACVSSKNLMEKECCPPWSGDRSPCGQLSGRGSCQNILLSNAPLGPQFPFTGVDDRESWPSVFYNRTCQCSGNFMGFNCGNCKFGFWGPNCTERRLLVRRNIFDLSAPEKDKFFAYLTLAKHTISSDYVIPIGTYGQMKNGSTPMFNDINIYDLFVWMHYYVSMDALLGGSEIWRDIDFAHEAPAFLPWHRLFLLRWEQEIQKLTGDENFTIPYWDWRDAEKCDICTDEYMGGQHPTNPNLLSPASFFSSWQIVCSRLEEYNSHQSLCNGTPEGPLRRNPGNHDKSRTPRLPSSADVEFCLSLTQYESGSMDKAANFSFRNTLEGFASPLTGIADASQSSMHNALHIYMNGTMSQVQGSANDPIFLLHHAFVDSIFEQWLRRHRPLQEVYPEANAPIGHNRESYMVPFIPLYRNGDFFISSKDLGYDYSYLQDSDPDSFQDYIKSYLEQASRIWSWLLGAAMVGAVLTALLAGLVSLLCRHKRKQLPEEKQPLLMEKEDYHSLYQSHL
Protocol: Human tyrosinase, obtained from melanocyte extracts obtained from healthy donors, catalyses the formation of L-dopaquinone from L-dopa. Now, the L-dopaquinone may be quantified by visible spectrophotometry at 490 nm by means of a chromogen: 3-methyl-2-benzothiazolinone hydrazone (MBTH).
The melanocyte extract is obtained after lysis of cell membranes of the normal human melanocytes, performed via a thermal shock. The supernatant is recovered and then incubated with MBTH (Sigma) and L-dopa (Sigma). […]

[2] = Antiradical activity, acellular DPPH model; settings: DPPH 30 minutes, absorbance 520 nm
Protocol: The antiradical activity of the derivatives derived from the syntheses described above was evaluated in an in vitro acellular model using DPPH.
1,1-Diphenyl 2-picryihydrazyl, on account of its paramagnetic structure, can accept an electron or a hydrogen radical to become a stable diamagnetic molecule. This free radical, which is purple coloured in ethanol, has a strong absorption band at 520 nm.
The addition of a compound that provides electrons results in a decolorization of the 1,1-diphenyl 2-picrylhydrazyl that is proportional to the number of electrons taken up by the radical, which may be monitored by measuring the absorbance at 520 nm.
DPPH is incubated for 30 minutes in the presence of the derivatives described above, tested at a concentration of 10^−5M, or alone for the control. At the end of the incubation, the antiradical activity of the above derivatives is evaluated by measuring the absorbance of the solution at 520 nm.
The antiradical activity of each test product is calculated according to the formula, as a percentage: 100−((OD520 in the presence of the test compound/OD520 in the absence of compound)×100)

normal human melanocytes = assay: Cytotoxicity on normal human melanocytes, PNPP assay; format: cell-based; settings: 24 hours, relative to untreated wells
Protocol: The cytotoxicity of the active agents is studied on normal human melanocytes in 24-well plates, via assay with PNPP (P-nitrophenyl phosphate), this substance being converted into p-nitrophenol via the intracellular acid phosphatases of viable cells. The absorbance of p-nitrophenol at 405 nm is directly proportional to the number of viable cells.
The active agents are tested at 2 different concentrations (10^−4 M and 10^−5 M) and added to the culture medium and incubated at 37° C. for 24 hours. The assay with PNPP is performed on the cell lawn and the results are expressed as a percentage of viability relative to the negative control (untreated wells).

fungal tyrosinase = assay: In vitro test of inhibition of isolated fungal tyrosinase (L-dopa, dopachrome OD 490 nm); format: biochemical; settings: 490 nm
Description: Tyrosinase catalyses the formation of L-dopaquinone and then of dopachrome from L-dopa. Now, dopachrome is a coloured compound that may be quantified by visible spectrophotometry at 490 nm. The use of an active agent capable of modifying the enzymatic activity will be reflected by a variation in the optical density at 490 nm. The to ratio of the rates of formation of dopachrome makes it possible to determine precisely the activations or inhibitions obtained with the various test molecules.
The sample to be tested is incubated in the presence of fungal tyrosinase (Sigma), for 5 minutes with stirring. L-Dopa (Sigma), a tyrosinase substrate, is incubated for 10 minutes in the absence of light, in the presence or absence of the test molecules. The calculation of the percentage of inhibition is performed by relating the test OD to the OD of the negative control without molecule.
In the context of this in vitro test, the p-coumaric acid derivatives were tested at final concentrations of 10^−4M and 10^−5M.

Human tyrosinase [3] = target: T1, Human tyrosinase; assay: Inhibition of human tyrosinase after 24 h application to normal human melanocytes in monolayer; format: cell-based; settings: for inhibition at 1000 µM: 10^−3 M; for anti-tyrosinase activity, in words: comment on Table 4, normal human melanocytes
Protocol: Normal human melanocytes (obtained from abdominal surgery) are seeded in 24-well plates at a rate of 80 000 cells per well. They are cultured to confluence and the active agents are applied for 24 hours to the culture media. After 24 hours, the media are removed and the melanocytes are detached via mechanical action. An extraction is performed via a thermal shock and the supernatants are then recovered and incubated with MBTH (Sigma) and L-dopa (Sigma). The OD at 490 nm is measured after 30 minutes, and the tyrosinase inhibition is calculated by relating the OD at 490 nm to the protein content (measured in each culture well) of the test relative to the ratio: OD 490 nm/protein concentration of the negative control (untreated control).
The compounds derived from the examples mentioned above were tested on melanocytes derived from various donors but of fair phototype, according to the protocol described in Example 29. The donors tested are as follows: • donor S (donor tested in Example 12): • donor 1: • donor 2: • donor 3
The compound derived from Example 1 is tested on cultures of melanocytes obtained from 2 donors of brown phototype and from one donor of black phototype. The protocol applied is that described in Example 29. […]

[4] = 10^−4M, 24 hours, read-out: Inhibition of human tyrosinase after application to normal human melanocytes, percentage of inhibition, Mean 10^−4M
[5] = 10^−5M, 24 hours, read-out: Inhibition of human tyrosinase after application to normal human melanocytes, percentage of inhibition, Mean 10^−5M

inhibition at 100 µM (Human tyrosinase [1]): 0%
inhibition at 10 µM (Human tyrosinase [1]): 7.56%
Inhibition of fungal tyrosinase, percentage of inhibition, Mean 10^−4M (fungal tyrosinase): 29.41%
Inhibition of fungal tyrosinase, percentage of inhibition, Mean 10^−5M (fungal tyrosinase): 10.16%
inhibition at 100 µM (Human tyrosinase [3]; [4]): 49.6%
inhibition at 10 µM (Human tyrosinase [3]; [5]): 33.1%
inhibition at 1000 µM (Human tyrosinase [3]; B103, Donor B, brown phototype, read-out: Inhibition of tyrosinase, Mean Donor B, 10^−3 M): 87.4%
inhibition at 100 µM (Human tyrosinase [3]; B104, Donor B, brown phototype, 10^−4 M, read-out: Inhibition of tyrosinase, Mean Donor B, 10^−4 M): 30.5%
inhibition at 100 µM (Human tyrosinase [3]; Donor 1, fair phototype, 10^−4 M, read-out: Inhibition of tyrosinase, Mean 10^−4 M, Donor 1): 44.8%
inhibition at 10 µM (Human tyrosinase [3]; Donor 1, fair phototype, 10^−5 M, read-out: Inhibition of tyrosinase, Mean 10^−5 M, Donor 1): 0%
inhibition at 100 µM (Human tyrosinase [3]; Donor 2, fair phototype, 10^−4 M, read-out: Inhibition of tyrosinase, Mean 10^−4 M, Donor 2): 10.7%
inhibition at 10 µM (Human tyrosinase [3]; Donor 2, fair phototype, 10^−5 M, read-out: Inhibition of tyrosinase, Mean 10^−5 M, Donor 2): 0%
inhibition at 100 µM (Human tyrosinase [3]; Donor 3, fair phototype, 10^−4 M, read-out: Inhibition of tyrosinase, Mean 10^−4 M, Donor 3): 57.9%
inhibition at 10 µM (Human tyrosinase [3]; Donor 3, fair phototype, 10^−5 M, read-out: Inhibition of tyrosinase, Mean 10^−5 M, Donor 3): 42.5%
inhibition at 1000 µM (Human tyrosinase [3]; Donor A, brown phototype, read-out: Inhibition of tyrosinase, Mean Donor A, 10^−3 M): 85.6%
inhibition at 100 µM (Human tyrosinase [3]; Donor A, brown phototype, 10^−4 M, read-out: Inhibition of tyrosinase, Mean Donor A, 10^−4 M): 40.4%
inhibition at 10 µM (Human tyrosinase [3]; Donor A, brown phototype, 10^−5 M, read-out: Inhibition of tyrosinase, Mean Donor A, 10^−5 M): 15.6%
inhibition at 10 µM (Human tyrosinase [3]; Donor B, brown phototype, 10^−5 M, read-out: Inhibition of tyrosinase, Mean Donor B, 10^−5 M): 16.7%
inhibition at 100 µM (Human tyrosinase [3]; Donor S, fair phototype, 10^−4 M, read-out: Inhibition of tyrosinase, Mean 10^−4 M, Donor S): 49.6%
inhibition at 10 µM (Human tyrosinase [3]; Donor S, fair phototype, 10^−5 M, read-out: Inhibition of tyrosinase, Mean 10^−5 M, Donor S): 33.1%
inhibition at 100 µM (Human tyrosinase [3]; donor of black phototype, 10^−4 M, read-out: Inhibition, Mean Negroid skin, 10^−4 M): 44.5%
inhibition at 10 µM (Human tyrosinase [3]; donor of black phototype, 10^−5 M, read-out: Inhibition, Mean Negroid skin, 10^−5 M): 21.9%
SMILES: COc1cc(/C=C/C(=O)NCCc2ccc(O)cc2)ccc1O [Example 3, N-trans-feruloyltyramine]
Antiradical activity, Mean 10^−5 M [2]: 13.73%
Percentages of viability, Mean 10^−4 M (normal human melanocytes; 10^−4 M): 102.55%
Percentages of viability, Mean 10^−5 M (normal human melanocytes): 111.54%

inhibition at 100 µM (Human tyrosinase [1]): 6.53%
inhibition at 10 µM (Human tyrosinase [1]): 0%
Inhibition of fungal tyrosinase, percentage of inhibition, Mean 10^−4M (fungal tyrosinase): 17.32%
Inhibition of fungal tyrosinase, percentage of inhibition, Mean 10^−5M (fungal tyrosinase): 20.26%
inhibition at 10 µM (Human tyrosinase [3]; [5]): 5.63%
SMILES: COc1ccc(CCNC(=O)/C=C/c2ccc(O)c(O)c2)cc1OC [Example 12, N-trans-caffeoyl-3,4-dimethoxydopamine]
Antiradical activity, Mean 10^−5 M [2]: 44.51%
Percentages of viability, Mean 10^−5 M (normal human melanocytes): 109.84%

SMILES: Cl.NCCc1ccc(O)c(O)c1 [Dopamine, 3-hydroxytyramine, reference compound]
anti-tyrosinase activity, in words (Human tyrosinase [3]): very low activity
inhibition at 100 µM (Human tyrosinase [3]; read-out: Inhibition of human tyrosinase after application to normal human melanocytes, percentage of inhibition, Mean 10^−4M): 10.3%

inhibition at 100 µM (Human tyrosinase [3]; [4]): 93.9%
inhibition at 10 µM (Human tyrosinase [3]; [5]): 12.9%
SMILES: O=C(CCc1ccc(O)c(O)c1)NCCc1ccc(O)cc1 [Example 13, dihydrocaffeoyltyramine]

inhibition at 100 µM (Human tyrosinase [3]; [4]): 27.7%
SMILES: COc1cc(CCC(=O)NCCc2ccc(O)cc2)ccc1O [Example 5, N-dihydroferuloyltyramine]

inhibition at 100 µM (Human tyrosinase [3]; [4]): 11.7%
inhibition at 10 µM (Human tyrosinase [3]; [5]): 5.87%
anti-tyrosinase activity, in words (Human tyrosinase [3]): very sparingly active
SMILES: COc1cc(C=CC(=O)O)ccc1O [Ferulic acid, 4-hydroxy-3-methoxycinnamic acid, reference compound]

inhibition at 100 µM (Human tyrosinase [3]; [4]): 50.1%
SMILES: O=C(O)C=Cc1ccc(O)cc1 [p-Coumaric acid, p-hydroxycinnamic acid, reference compound]

inhibition at 100 µM (Human tyrosinase [3]; [4]): 41.8%
SMILES: COc1cc(CCC(=O)NCCc2ccc(O)c(O)c2)ccc1O [Example 6, N-dihydroferuloyldopamine]
